# Laboratory results published in ChEMBL document CHEMBL5584239, “Discovery of novel quinoline scaffold selective estrogen receptor degraders (SERDs) for treatment of ER positive breast cancer with enhanced antiproliferative bioactivity through immunogenic cell death (ICD) effects” (Eur J Med Chem, 2024).
# pIC50: −log10 of the molar value. Active and inactive are the calls of the source. No cut-off for these calls is given here.
# How the values were obtained:
# [1] = system: MCF7; assay: Antiproliferative activity against human MCF7 cells incubated for 5 days by MTT assay; assay type: functional, cell-based; conditions: MCF7, 120 h
# [2] = system: Uterus; assay: Effect on immature Sprague-Dawley rat uterus assessed as reduction in uterine wet weight at 2 mg/kg, sc qd for 2 days by H and E staining based analysis; assay type: functional, organism-based; conditions: time 2.0 day
# [3] = system: MCF7; assay: Induction of cell cycle arrest at G0/G1 phase in human MCF7 cells at 10 uM incubated for 24 hrs by PI/RNase staining based flow cytometry (reference value: 53.5 +/- 1.96 %); assay type: functional
# [4] = system: MCF7; assay: Synergistic antiproliferative activity against human MCF7 cells at 0.1 to 10000 nM incubated for 5 days in presence of Ribociclib by MTT assay; assay type: functional, cell-based; conditions: dose 0.1-10000 nM, time 5.0 day
# [5] = system: Ishikawa; assay: Antiproliferative activity against human Ishikawa cells at 20 uM incubated for 3 days by MTT assay relative to control; assay type: functional; conditions: 72 h, time 3 day
# [6] = system: MCF7; assay: Induction of ROS production in human MCF7 cells incubated for 3 to 24 hrs by immunofluorescence analysis; assay type: functional, cell-based; conditions: time 3-24 hrs
compound,measurement,setting,value
C[C@]12CC[C@@H]3c4ccc(O)cc4C[C@@H](CCCCCCCCC[S+]([O-])CCCC(F)(F)C(F)(F)F)[C@H]3[C@@H]1CC[C@@H]2O (stereo partly specified) [FULVESTRANT],pIC50,[1],9.19
same,Activity,[2],Active
same,Activity,[3],66.83%
same,Activity,[4],Active
same,inhibition at 20 µM,[5],-3.19%
same,Activity,[6],inactive
